Reference: PubChem BioAssay (NCI)
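How tested: cells in 96-well plates exposed to compound for 48 hours at five concentrations. TGI: concentration producing complete growth inhibition.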

Experiments:
Assay in all cases: inhibition of tumour cell growth, NCI panel, 48 h
SNB-19 CNS = system: SNB-19 CNS
NCI/ADR-RES ovarian = system: NCI/ADR-RES ovarian
SK-MEL-28 melanoma = system: SK-MEL-28 melanoma
MALME-3M melanoma = system: MALME-3M melanoma
A549 NSCLC = system: A549 NSCLC
T-47D breast = system: T-47D breast
M14 melanoma = system: M14 melanoma
EKVX NSCLC = system: EKVX NSCLC
UACC-257 melanoma = system: UACC-257 melanoma
HS 578T breast = system: HS 578T breast
HOP-92 NSCLC = system: HOP-92 NSCLC
COLO 205 colon = system: COLO 205 colon
OVCAR-5 ovarian = system: OVCAR-5 ovarian
OVCAR-3 ovarian = system: OVCAR-3 ovarian
SNB-75 CNS = system: SNB-75 CNS
IGROV1 ovarian = system: IGROV1 ovarian
SK-MEL-5 melanoma = system: SK-MEL-5 melanoma
KM12 colon = system: KM12 colon
HCT-116 colon = system: HCT-116 colon
BT-549 breast = system: BT-549 breast
HCT-15 colon = system: HCT-15 colon
ACHN renal = system: ACHN renal
CAKI-1 renal = system: CAKI-1 renal
SF-539 CNS = system: SF-539 CNS
MDA-N = system: MDA-N
SW-620 colon = system: SW-620 colon
SN12C renal = system: SN12C renal
K-562 leukemia = system: K-562 leukemia
OVCAR-4 ovarian = system: OVCAR-4 ovarian
SF-295 CNS = system: SF-295 CNS
SR leukemia = system: SR leukemia
U251 CNS = system: U251 CNS
HL-60(TB) leukemia = system: HL-60(TB) leukemia
UACC-62 melanoma = system: UACC-62 melanoma
TK-10 renal = system: TK-10 renal
NCI-H226 lung = system: NCI-H226 lung
LOX IMVI melanoma = system: LOX IMVI melanoma
RPMI-8226 leukemia = system: RPMI-8226 leukemia
HT29 colon = system: HT29 colon
MDA-MB-231 breast = system: MDA-MB-231 breast
OVCAR-8 ovarian = system: OVCAR-8 ovarian
A498 renal = system: A498 renal
NCI-H23 lung = system: NCI-H23 lung
HOP-62 NSCLC = system: HOP-62 NSCLC
MDA-MB-435 = system: MDA-MB-435
NCI-H460 lung = system: NCI-H460 lung
HCC-2998 colon = system: HCC-2998 colon
DU-145 prostate = system: DU-145 prostate
CCRF-CEM leukemia = system: CCRF-CEM leukemia
SK-OV-3 ovarian = system: SK-OV-3 ovarian
SK-MEL-2 melanoma = system: SK-MEL-2 melanoma
NCI-H522 lung = system: NCI-H522 lung
PC-3 prostate = system: PC-3 prostate
RXF 393 renal = system: RXF 393 renal
786-0 renal = system: 786-0 renal
UO-31 renal = system: UO-31 renal
MCF7 breast = system: MCF7 breast
MOLT-4 leukemia = system: MOLT-4 leukemia
SF-268 CNS = system: SF-268 CNS

`CC(=O)NC1C(OCc2ccccc2)OC(CO)C(O)C1OCC(=O)N[C@@H](C)C(=O)N[C@H](CCC(=O)NCCCNc1ccc([N+](=O)[O-])c2[nH]c3ccccc3c(=O)c12)C(N)=O` (some centres undefined) gave a TGI (SNB-19 CNS) of over 100 µM, a TGI (NCI/ADR-RES ovarian) of over 100 µM and a TGI (SK-MEL-28 melanoma) of over 100 µM. The TGI (MALME-3M melanoma) was over 100 µM, the TGI (A549 NSCLC) was over 100 µM and the TGI (T-47D breast) was over 100 µM. The TGI (M14 melanoma) was over 100 µM, the TGI (EKVX NSCLC) was over 100 µM and the TGI (UACC-257 melanoma) was over 100 µM. For the same molecule, the TGI (HS 578T breast) was 90.2 µM, the TGI (HOP-92 NSCLC) was over 100 µM and the TGI (COLO 205 colon) was over 100 µM. For the same molecule, the TGI (OVCAR-5 ovarian) was over 100 µM, the TGI (OVCAR-3 ovarian) was over 100 µM and the TGI (SNB-75 CNS) was over 100 µM. For the same molecule, the TGI (IGROV1 ovarian) was over 100 µM, the TGI (SK-MEL-5 melanoma) was over 100 µM and the TGI (KM12 colon) was over 100 µM. The TGI (HCT-116 colon) was over 100 µM, the TGI (BT-549 breast) was 96.9 µM and the TGI (HCT-15 colon) was over 100 µM. For the same molecule, the TGI (ACHN renal) was over 100 µM, the TGI (CAKI-1 renal) was over 100 µM and the TGI (SF-539 CNS) was over 100 µM. It also gave a TGI (MDA-N) of over 100 µM, a TGI (SW-620 colon) of over 100 µM and a TGI (SN12C renal) of over 100 µM. The TGI (K-562 leukemia) was over 100 µM, the TGI (OVCAR-4 ovarian) was 94.8 µM and the TGI (SF-295 CNS) was over 100 µM. It also gave a TGI (SR leukemia) of over 100 µM, a TGI (U251 CNS) of over 100 µM and a TGI (HL-60(TB) leukemia) of over 100 µM. It also gave a TGI (UACC-62 melanoma) of over 100 µM, a TGI (TK-10 renal) of over 100 µM and a TGI (NCI-H226 lung) of 65.8 µM. For the same molecule, the TGI (LOX IMVI melanoma) was over 100 µM, the TGI (RPMI-8226 leukemia) was over 100 µM and the TGI (HT29 colon) was over 100 µM. It also gave a TGI (MDA-MB-231 breast) of over 100 µM, a TGI (OVCAR-8 ovarian) of over 100 µM and a TGI (A498 renal) of over 100 µM. It also gave a TGI (NCI-H23 lung) of over 100 µM, a TGI (HOP-62 NSCLC) of over 100 µM and a TGI (MDA-MB-435) of over 100 µM. It also gave a TGI (NCI-H460 lung) of over 100 µM, a TGI (HCC-2998 colon) of over 100 µM and a TGI (DU-145 prostate) of over 100 µM. The TGI (CCRF-CEM leukemia) was over 100 µM, the TGI (SK-OV-3 ovarian) was over 100 µM and the TGI (SK-MEL-2 melanoma) was over 100 µM. For the same molecule, the TGI (NCI-H522 lung) was over 100 µM, the TGI (PC-3 prostate) was over 100 µM and the TGI (RXF 393 renal) was over 100 µM. For the same molecule, the TGI (786-0 renal) was over 100 µM and the TGI (UO-31 renal) was over 100 µM.
With `C(#Cc1ccccc1)SC1=C(c2ccccc2)S/C(=C(\SC#Cc2ccccc2)c2ccccc2)S1` the TGI (SNB-19 CNS) was over 100 µM, the TGI (NCI/ADR-RES ovarian) was over 100 µM and the TGI (SK-MEL-28 melanoma) was over 100 µM. The TGI (A549 NSCLC) was over 100 µM, the TGI (T-47D breast) was over 100 µM and the TGI (M14 melanoma) was over 100 µM. For the same molecule, the TGI (EKVX NSCLC) was over 100 µM, the TGI (UACC-257 melanoma) was over 100 µM and the TGI (HS 578T breast) was over 100 µM. For the same molecule, the TGI (HOP-92 NSCLC) was over 100 µM, the TGI (COLO 205 colon) was over 100 µM and the TGI (OVCAR-5 ovarian) was over 100 µM. For the same molecule, the TGI (OVCAR-3 ovarian) was over 100 µM, the TGI (SNB-75 CNS) was over 100 µM and the TGI (IGROV1 ovarian) was over 100 µM. The TGI (MCF7 breast) was over 100 µM, the TGI (SK-MEL-5 melanoma) was over 100 µM and the TGI (KM12 colon) was over 100 µM. The TGI (HCT-116 colon) was over 100 µM, the TGI (BT-549 breast) was over 100 µM and the TGI (HCT-15 colon) was over 100 µM. It also gave a TGI (ACHN renal) of over 100 µM, a TGI (CAKI-1 renal) of over 100 µM and a TGI (SF-539 CNS) of over 100 µM. It also gave a TGI (MDA-N) of over 100 µM, a TGI (SW-620 colon) of over 100 µM and a TGI (SN12C renal) of over 100 µM. The TGI (K-562 leukemia) was over 100 µM, the TGI (OVCAR-4 ovarian) was over 100 µM and the TGI (SF-295 CNS) was over 100 µM. It also gave a TGI (MOLT-4 leukemia) of over 100 µM, a TGI (SR leukemia) of over 100 µM and a TGI (U251 CNS) of over 100 µM. It also gave a TGI (UACC-62 melanoma) of over 100 µM, a TGI (TK-10 renal) of over 100 µM and a TGI (NCI-H226 lung) of over 100 µM. For the same molecule, the TGI (LOX IMVI melanoma) was over 100 µM, the TGI (HT29 colon) was over 100 µM and the TGI (MDA-MB-231 breast) was over 100 µM. It also gave a TGI (OVCAR-8 ovarian) of over 100 µM, a TGI (NCI-H23 lung) of over 100 µM and a TGI (HOP-62 NSCLC) of over 100 µM. The TGI (MDA-MB-435) was over 100 µM, the TGI (NCI-H460 lung) was over 100 µM and the TGI (SF-268 CNS) was over 100 µM. For the same molecule, the TGI (HCC-2998 colon) was over 100 µM, the TGI (DU-145 prostate) was over 100 µM and the TGI (CCRF-CEM leukemia) was over 100 µM. It also gave a TGI (SK-OV-3 ovarian) of over 100 µM, a TGI (NCI-H522 lung) of over 100 µM and a TGI (PC-3 prostate) of over 100 µM. For the same molecule, the TGI (786-0 renal) was over 100 µM and the TGI (UO-31 renal) was over 100 µM.
